Columns and labels:
[1] = system: MDA-MB-468 breast cancer cell line; test: Cell growth inhibition assay, MDA-MB-468 (CellTiter-Glo); type: cell-based; settings: Homo sapiens, MDA-MB-468, 96 hours
Experimental: The inhibitory effects of the compounds of the present invention against the growth of cancer cells were evaluated as shown below. The cancer cell lines including prostate cancer cell lines (LNCaP, DU-145), stomach cancer cell line (NCI-N87), and breast cancer cell lines (MDA-MB-468) were cultured under the protocol provided by each supplier. A medium supplemented with 10 ng/mL of IL-6 was used for LNCaP, a prostate cancer cell line, when treated with a drug. Each type of cells to be used in experiments was sub-cultured in a 96-well plate by counting the exact number of cells using Tali™ Image-based Cytometer (Life Technologies). In a 96-well plate, DU-145 was employed with 3,000 cells/well; NCI-N87 was employed with 5,000 cells/well; and LNCaP and MDA-MB-468 were employed with 10,000 cells/well. The cells were treated with the compounds listed in Examples which were diluted in various concentrations. Upon completion of the compounds treatment, LNCaP, DU-145, NCI-N87 cells were cultured at 37° C. under 5% CO2 for 96 hours, and MDA-MB-468 cells were cultured at 37° C. in air for 96 hours. Subsequently, the cells were observed under microscope and drug precipitation and particular findings were investigated and recorded. And then, the 96-well plate was placed at room temperature for 30 minutes, added with 20 pt/well of CellTiter-Glo solution (Cat No. G7573, Promega) and shaken for 10 minutes, followed by being subjected to the measurement using PHERAstar™ microplate reader (BMG LABTECH) according to the supplier's general luminometer protocol. Wells where only culture liquid added without cell plating were used as a negative control, whereas wells where culture liquid containing 0.1% DMSO instead of the compounds listed in Examples were used as a positive control.

[2] = system: LNCaP prostate cancer cell line; test: Cell growth inhibition assay, LNCaP (CellTiter-Glo); type: cell-based; settings: Homo sapiens; LNCaP, 10,000 cells/well, medium with 10 ng/mL IL-6, 96 hours
How it was run: (§1)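 Cells seeded at 3,000 (DU-145), 5,000 (NCI-N87) or 10,000 (LNCaP, MDA-MB-468) per well, LNCaP in medium with 10 ng/mL IL-6. Serially diluted compound for 96 h at 37 °C (MDA-MB-468 in air, others 5% CO2); viability by CellTiter-Glo luminescence versus 0.1% DMSO wells.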

[3] = system: STAT3; test: STAT3 reporter gene assay (luciferase), LNCaP stable cell line pSTAT3-TA-luc, IL-6 stimulation; type: cell-based, human; settings: Homo sapiens
How it was run: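 LNCaP cells stably carrying pSTAT3-TA-luc were plated 24 h in 3% DCC-FBS medium, then given compound followed by IL-6 (10 ng/mL final) for 24 h at 37 °C. Luciferase was read from lysates, with CellTiter-Glo viability on a duplicate plate. Stimulated 0.1% DMSO wells served as uninhibited control.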

[4] = system: NCI-N87 stomach cancer cell line; test: Cell growth inhibition assay, NCI-N87 (CellTiter-Glo); type: cell-based; settings: Homo sapiens; NCI-N87, 5,000 cells/well, 96 hours
How it was run: as §1

[5] = system: STAT1; test: STAT1 reporter gene assay (luciferase), U2OS stable cell line pGL4-STAT1-TA-luc, IFN-γ stimulation; type: cell-based, human; settings: Homo sapiens, IFN-γ 50 ng/mL, 8 hours, read-out: IC50 (μM) pSTAT1
How it was run: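 U2OS cells stably carrying a STAT1-driven luciferase reporter were treated with serially diluted compounds plus IFN-γ (50 ng/mL final) for 8 h at 37 °C in 10% FBS medium. Luciferase read after lysis; parallel plate assessed for cytotoxicity by CellTiter-Glo.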

[6] = system: DU-145 prostate cancer cell line; test: Cell growth inhibition assay, DU-145 (CellTiter-Glo); type: cell-based; settings: Homo sapiens; DU-145, 3,000 cells/well, 96 hours
How it was run: as §1

**Q.** Which results are given for `CC(C)(c1ccc2sc(C(=O)Nc3cc(Cl)nc(Oc4ccc(Cl)cc4)c3)cc2c1)S(C)(=O)=O` [Example 64, N-(2-chloro-6-(4-chlorophenoxy)pyridin-4-yl)-5-(2-(methylsulfonyl)propan-2-yl)benzo[b]thiophene-2-carboxamide]?
**A.** IC50 [1]: 0.0065 µM; IC50 [2]: 0.013 µM; IC50 [3]: 0.021 µM; IC50 [4]: 0.034 µM; IC50 [5]: > 50 µM; IC50 [6]: 0.0057 µM
